Source: patent US20260231994A1, “TASTE-ENHANCING COMPOSITION, METHOD FOR PRODUCING SAME, FOOD PRODUCT, AND METHOD FOR ENHANCING TASTE OF FOOD PRODUCT” (HOUSE FOODS GROUP INC., priority 2023, published 2026)

Key:
Format in all cases: in vivo
[1] = Experiment 6 sensory evaluation of cyclic dipeptides, “top sharp saltiness”
Experimental: (§1) An aqueous solution in which the concentration of each of the cyclic dipeptides shown in the table described below is set to be the same as its concentration in the heat-treated coriander prepared in 1.1. described above, as estimated from the ratio of the peak area of the cyclic dipeptides to the peak area of the internal standard (47 μg/g of L-lysine-^13C6 monohydrochloride) (hereinafter referred to as “heat-treated coriander equivalent aqueous solution”) was prepared. An aqueous solution in which the concentration of each of the cyclic dipeptides is set to be the same as its concentration in the heat-treated paprika of Example 203 prepared in 2.1 described above (hereinafter referred to as “heat-treated paprika equivalent aqueous solution”) was also prepared. Cyclic dipeptides prepared by the applicant were used in this experiment. As a cyclic dipeptide comprising Leu/Ile, a mixture comprising equal parts of cyclic dipeptide comprising Leu and cyclic dipeptide comprising Ile was used.
(§2) Common and reduced-sodium curry rouxes were prepared according to the procedures described in (1) and (2) of 1.3. described above.
(§3) Two dispersions of 44 g of the aforesaid reduced-sodium curry roux dispersed in 300 g of hot water were prepared. To one of them was added the heat-treated coriander equivalent solution or heat-treated paprika equivalent aqueous solution of the individual cyclic dipeptides shown in the table described below so as to be in the final concentration of 0.5% (w/w) or 1.0% (w/w), respectively.
(§4) Forty-four grams of the aforesaid common curry roux was dispersed in 300 g of hot water.
(§5) The dispersion of reduced-sodium curry roux dispersed in hot water and the dispersion of common curry roux dispersed in hot water were used as comparative controls, and the strength of the flavor was evaluated by three evaluators on the basis of the following evaluation criteria from the viewpoint of “top sharp saltiness”, “middle fullness (enhanced thickness) and “boosting of last flavor (aftertaste).”
(§6) The average of the evaluated scores was defined as “F” when it was 1.0 or lower, “C” when it was 1.1 or higher and 1.9 or lower, “B” when it was 2.0 or higher and 2.5 or lower, “A” when it was 2.6 or higher and 2.9 or lower, and “AA” when it was 3.0 or higher.
(§7) In the table described below, “ID” refers to the compound ID described above. The items of “coriander 0.5%” and “coriander 1.0%” refer to the addition of the aforesaid heat-treated coriander equivalent aqueous solution of cyclic dipeptide so that the final concentrations may be 0.5% (w/w) and 1.0% (w/w), respectively. The items of “paprika 0.5%” and “paprika 1.0%” refer to the addition of the aforesaid heat-treated paprika equivalent aqueous solution of cyclic dipeptide so that the final concentration may be 0.5% (w/w) and 1.0% (w/w), respectively.

[2] = Experiment 6 sensory evaluation of cyclic dipeptides, “middle fullness (enhanced thickness)”
Experimental: as §1, §2, §3, §4, §5, §6, §7

[3] = Experiment 6 sensory evaluation of cyclic dipeptides, “boosting of last flavor (aftertaste)”
Experimental: as §1, §2, §3, §4, §5, §6, §7

[4] = Additive amount paprika 0.5% (heat-treated paprika equivalent aqueous solution, final 0.5% (w/w)), reduced-sodium curry roux
[5] = Additive amount paprika 0.5%, reduced-sodium curry roux
[6] = heat-treated paprika equivalent aqueous solution of cyclic dipeptide, final 1.0% (w/w) in reduced-sodium curry roux dispersion
[7] = heat-treated paprika equivalent aqueous solution of cyclic dipeptide, final 1.0% (w/w) in reduced-sodium curry roux dispersion, 3 evaluators
[8] = Additive amount coriander 0.5% (heat-treated coriander equivalent aqueous solution, final 0.5% (w/w)), reduced-sodium curry roux
[9] = Additive amount coriander 0.5%, reduced-sodium curry roux
[10] = heat-treated coriander equivalent aqueous solution of cyclic dipeptide, final 1.0% (w/w) in reduced-sodium curry roux dispersion
[11] = heat-treated coriander equivalent aqueous solution of cyclic dipeptide, final 1.0% (w/w) in reduced-sodium curry roux dispersion, 3 evaluators

With cyclic (Glu-Glu) the “Top sharp saltiness Average” value [1, 4] was 2.0 points, the “Top sharp saltiness Evaluation” value [1, 5] was “B (“B” when it was 2.0 or higher and 2.5 or lower)” and the “Top sharp saltiness Evaluation” value [1, 6] was “B (“B” when it was 2.0 or higher and 2.5 or lower)”. For the same substance, the “Top sharp saltiness Average” value [1, 7] was 2.2 points, the “Middle fullness Average” value [2, 5] was 2.3 points and the “Middle fullness Evaluation” value [2, 5] was “B (“B” when it was 2.0 or higher and 2.5 or lower)”. The “Middle fullness Evaluation” value [2, 6] was “B (“B” when it was 2.0 or higher and 2.5 or lower)”, the “Middle fullness Average” value [2, 7] was 2.5 points and the “Bosting of last flavor Average” value [3, 5] was 2.5 points. The “Bosting of last flavor Evaluation” value [3, 5] was “B (“B” when it was 2.0 or higher and 2.5 or lower)”, the “Bosting of last flavor Evaluation” value [3, 6] was “B (“B” when it was 2.0 or higher and 2.5 or lower)” and the “Bosting of last flavor Average” value [3, 7] was 2.2 points.
In the case of cyclic (Glu-Gly) [Coriander ID 9], the “Top sharp saltiness Average” value [1, 8] is reported as 2.2 points, the “Top sharp saltiness Evaluation” value [1, 9] is reported as “B (“B” when it was 2.0 or higher and 2.5 or lower)” and the “Top sharp saltiness Evaluation” value [1, 10] is reported as “B (“B” when it was 2.0 or higher and 2.5 or lower)”. For the same substance, the “Top sharp saltiness Average” value [1, 11] was 2.0 points, the “Middle fullness Average” value [2, 9] was 2.8 points and the “Middle fullness Evaluation” value [2, 9] was “A (“A” when it was 2.6 or higher and 2.9 or lower)”. The “Middle fullness Evaluation” value [2, 10] was “AA (“AA” when it was 3.0 or higher)”, the “Middle fullness Average” value [2, 11] was 3.0 points and the “Bosting of last flavor Average” value [3, 9] was 2.8 points. The “Bosting of last flavor Evaluation” value [3, 9] was “A (“A” when it was 2.6 or higher and 2.9 or lower)”, the “Bosting of last flavor Evaluation” value [3, 10] was “B (“B” when it was 2.0 or higher and 2.5 or lower)” and the “Bosting of last flavor Average” value [3, 11] was 2.5 points.
For cyclic (Glu-His) [Coriander ID 6], the “Top sharp saltiness Average” value [1, 8] was 3.2 points, the “Top sharp saltiness Evaluation” value [1, 9] was “AA (“AA” when it was 3.0 or higher)” and the “Top sharp saltiness Evaluation” value [1, 10] was “AA (“AA” when it was 3.0 or higher)”. The “Top sharp saltiness Average” value [1, 11] was 4.0 points, the “Middle fullness Average” value [2, 9] was 3.3 points and the “Middle fullness Evaluation” value [2, 9] was “AA (“AA” when it was 3.0 or higher)”. The “Middle fullness Evaluation” value [2, 10] was “AA (“AA” when it was 3.0 or higher)”, the “Middle fullness Average” value [2, 11] was 3.8 points and the “Bosting of last flavor Average” value [3, 9] was 3.0 points. The “Bosting of last flavor Evaluation” value [3, 9] was “AA (“AA” when it was 3.0 or higher)”, the “Bosting of last flavor Evaluation” value [3, 10] was “AA (“AA” when it was 3.0 or higher)” and the “Bosting of last flavor Average” value [3, 11] was 3.7 points.
With cyclic (Glu-Leu/Ile) [Coriander ID 47] the “Top sharp saltiness Average” value [1, 8] was 2.3 points, the “Top sharp saltiness Evaluation” value [1, 9] was “B (“B” when it was 2.0 or higher and 2.5 or lower)” and the “Top sharp saltiness Evaluation” value [1, 10] was “B (“B” when it was 2.0 or higher and 2.5 or lower)”. For the same substance, the “Top sharp saltiness Average” value [1, 11] was 2.2 points, the “Middle fullness Average” value [2, 9] was 2.8 points and the “Middle fullness Evaluation” value [2, 9] was “A (“A” when it was 2.6 or higher and 2.9 or lower)”. For the same substance, the “Middle fullness Evaluation” value [2, 10] was “B (“B” when it was 2.0 or higher and 2.5 or lower)”, the “Middle fullness Average” value [2, 11] was 2.3 points and the “Bosting of last flavor Average” value [3, 9] was 3.0 points. For the same substance, the “Bosting of last flavor Evaluation” value [3, 9] was “AA (“AA” when it was 3.0 or higher)”, the “Bosting of last flavor Evaluation” value [3, 10] was “A (“A” when it was 2.6 or higher and 2.9 or lower)” and the “Bosting of last flavor Average” value [3, 11] was 2.7 points.
For cyclic (Glu-Phe) [Coriander ID 46], the “Top sharp saltiness Average” value [1, 8] was 3.0 points, the “Top sharp saltiness Evaluation” value [1, 9] was “AA (“AA” when it was 3.0 or higher)” and the “Top sharp saltiness Evaluation” value [1, 10] was “B (“B” when it was 2.0 or higher and 2.5 or lower)”. For the same substance, the “Top sharp saltiness Average” value [1, 11] was 2.5 points, the “Middle fullness Average” value [2, 9] was 2.8 points and the “Middle fullness Evaluation” value [2, 9] was “A (“A” when it was 2.6 or higher and 2.9 or lower)”. The “Middle fullness Evaluation” value [2, 10] was “A (“A” when it was 2.6 or higher and 2.9 or lower)”, the “Middle fullness Average” value [2, 11] was 2.7 points and the “Bosting of last flavor Average” value [3, 9] was 2.8 points. For the same substance, the “Bosting of last flavor Evaluation” value [3, 9] was “A (“A” when it was 2.6 or higher and 2.9 or lower)”, the “Bosting of last flavor Evaluation” value [3, 10] was “B (“B” when it was 2.0 or higher and 2.5 or lower)” and the “Bosting of last flavor Average” value [3, 11] was 2.5 points.
With cyclic (Glu-Tyr) [Coriander ID 19] the “Top sharp saltiness Average” value [1, 4] was 2.3 points, the “Top sharp saltiness Evaluation” value [1, 5] was “B (“B” when it was 2.0 or higher and 2.5 or lower)” and the “Top sharp saltiness Evaluation” value [1, 6] was “A (“A” when it was 2.6 or higher and 2.9 or lower)”. For the same substance, the “Top sharp saltiness Average” value [1, 7] was 2.8 points, the “Middle fullness Average” value [2, 5] was 2.7 points and the “Middle fullness Evaluation” value [2, 5] was “A (“A” when it was 2.6 or higher and 2.9 or lower)”. For the same substance, the “Middle fullness Evaluation” value [2, 6] was “AA (“AA” when it was 3.0 or higher)”, the “Middle fullness Average” value [2, 7] was 3.0 points and the “Bosting of last flavor Average” value [3, 5] was 2.5 points. For the same substance, the “Bosting of last flavor Evaluation” value [3, 5] was “B (“B” when it was 2.0 or higher and 2.5 or lower)”, the “Bosting of last flavor Evaluation” value [3, 6] was “A (“A” when it was 2.6 or higher and 2.9 or lower)” and the “Bosting of last flavor Average” value [3, 7] was 2.8 points.
With cyclic (Gly-Ala) [Coriander ID 57] the “Top sharp saltiness Average” value [1, 8] was 2.0 points, the “Top sharp saltiness Evaluation” value [1, 9] was “B (“B” when it was 2.0 or higher and 2.5 or lower)” and the “Top sharp saltiness Evaluation” value [1, 10] was “B (“B” when it was 2.0 or higher and 2.5 or lower)”. For the same substance, the “Top sharp saltiness Average” value [1, 11] was 2.2 points, the “Middle fullness Average” value [2, 9] was 2.0 points and the “Middle fullness Evaluation” value [2, 9] was “B (“B” when it was 2.0 or higher and 2.5 or lower)”. For the same substance, the “Middle fullness Evaluation” value [2, 10] was “B (“B” when it was 2.0 or higher and 2.5 or lower)”, the “Middle fullness Average” value [2, 11] was 2.5 points and the “Bosting of last flavor Average” value [3, 9] was 2.3 points. For the same substance, the “Bosting of last flavor Evaluation” value [3, 9] was “B (“B” when it was 2.0 or higher and 2.5 or lower)”, the “Bosting of last flavor Evaluation” value [3, 10] was “A (“A” when it was 2.6 or higher and 2.9 or lower)” and the “Bosting of last flavor Average” value [3, 11] was 2.7 points.
In the case of cyclic (Gly-Arg) [Coriander ID 7], the “Top sharp saltiness Average” value [1, 8] is reported as 2.5 points, the “Top sharp saltiness Evaluation” value [1, 9] is reported as “B (“B” when it was 2.0 or higher and 2.5 or lower)” and the “Top sharp saltiness Evaluation” value [1, 10] is reported as “C (“C” when it was 1.1 or higher and 1.9 or lower)”. For the same substance, the “Top sharp saltiness Average” value [1, 11] was 1.3 points, the “Middle fullness Average” value [2, 9] was 3.2 points and the “Middle fullness Evaluation” value [2, 9] was “AA (“AA” when it was 3.0 or higher)”. The “Middle fullness Evaluation” value [2, 10] was “C (“C” when it was 1.1 or higher and 1.9 or lower)”, the “Middle fullness Average” value [2, 11] was 1.7 points and the “Bosting of last flavor Average” value [3, 9] was 3.0 points. For the same substance, the “Bosting of last flavor Evaluation” value [3, 9] was “AA (“AA” when it was 3.0 or higher)”, the “Bosting of last flavor Evaluation” value [3, 10] was “C (“C” when it was 1.1 or higher and 1.9 or lower)” and the “Bosting of last flavor Average” value [3, 11] was 1.5 points.
